Drawing on PMC12697865, “ZFPL1 Promotes Colorectal Cancer Progression by Stabilizing ASS1 to Drive the Urea Cycle and M2 Macrophage‐Mediated Metastatic Colonization” (Advanced Science, 2025), this text covers Kd for one compound.

This assay deals with T1, zinc finger protein-like 1 (ZFPL1) (Homo sapiens, UniProt O95159).
T1 sequence (O95159 1-310): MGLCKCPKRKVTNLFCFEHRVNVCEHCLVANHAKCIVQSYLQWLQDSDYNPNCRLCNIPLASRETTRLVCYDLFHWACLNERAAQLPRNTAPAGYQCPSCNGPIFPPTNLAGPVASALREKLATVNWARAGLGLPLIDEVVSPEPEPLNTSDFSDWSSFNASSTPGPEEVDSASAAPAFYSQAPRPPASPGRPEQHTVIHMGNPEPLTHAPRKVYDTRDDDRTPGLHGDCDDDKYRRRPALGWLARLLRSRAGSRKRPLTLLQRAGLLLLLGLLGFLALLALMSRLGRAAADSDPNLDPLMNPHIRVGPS
The experiment in a line: microscale thermophoresis (MST) with fluorescently labelled ZFPL1. The assay is classed as binding.

Each structure is given as a SMILES string.

`O=C(/C=C/c1ccc(O)c2c1[C@H](C(=O)O[C@H](Cc1ccc(O)c(O)c1)C(=O)O)[C@@H](c1ccc(O)c(O)c1)O2)O[C@H](Cc1ccc(O)c(O)c1)C(=O)O` [Salvianolic acid B] came in with a Kd of 8.52 µM.
